According to ChEMBL document CHEMBL1128811, “Isolation and structure of the exceptional Pterobranchia human cancer inhibitors cephalostatins 16 and 171” (1995):

Key:
Type in all cases: functional
[1] = system: Tumor Cell line; experiment: In vitro cytotoxic potency against 60 human tumor cell lines at 10e-8 M concentration
[2] = system: P388; experiment: Effective dose against P388 cell line […]; conditions: Mus musculus, read-out: ED50 (the source's name)
[3] = system: Tumor Cell line; experiment: In vitro cytotoxic potency against 60 human tumor cell lines at 10e-7 M concentration

SMILES | GI50 [1] [nM] | EC50 [2] [ng/mL] | GI50 [3] [nM]
C[C@@H]1[C@H]2CC=C3[C@@H]4CC[C@H]5Cc6nc7c(nc6C[C@]5(C)[C@@]4(O)CC(=O)[C@@]32CO[C@]12OC(C)(C)C[C@H]2O)C[C@@H]1CC[C@H]2C3=C[C@@H]4O[C@@]5(CC[C@](C)(O)CO5)[C@@H](C)[C@]4(O)[C@@]3(C)[C@H](O)C[C@@H]2[C@@]1(C)C7 [CEPHALOSTATIN 16] | ~1 | < 1 | –
C[C@@H]1[C@]2(O[C@H]3C=C4[C@@H]5CC[C@H]6Cc7nc8c(nc7C[C@]6(C)[C@H]5C[C@@H](O)[C@]4(C)[C@]31O)C[C@@H]1CC[C@H]3C4=CC[C@@H]5[C@H](C)[C@@]6(OC[C@]45C(=O)C[C@@H]3[C@@]1(C)C8)OC(C)(C)C[C@H]6O)O[C@](C)(CO)C[C@H]2O [CEPHALOSTATIN 1] | – | – | ~1
